Marks after values point to notes of the source that are not given here. A value given as a limit tells only on which side of the number the result lay.

Consider four compounds from patent publication US6562796B2, “Derivatives of polyene macrolides and preparation and use thereof” (Micrologix Biotech Inc., priority 2000, dated 2003).

Series [1] concerns C. albicans. Description: Efficacy in mice injected with C. albicans (kidney cfu reduction). To be noted: for ED50: Candida albicans, mice injected with C. albicans, efficacy = 2 log reduction in kidney cfu relative to mean vehicle control, read-out: ED50 Kidney CFU Red.; for level of Candida albicans in the kidneys of mice (FIG. 1): treated mice, compared with AME. The class given is in vivo, Candida albicans. How it is done:
(§1) For each compound Minimum Inhibitory Concentrations (MIC) were determined as described in Reference Method for Broth Dilution Antifungal Susceptibility Testing of Yeasts; Approved Standard; NCCLS document M27-A (ISBN 1-56238-328-0); NCCLS, 940 West Valley Road, Suite 1400, Wayne, Pa. 19087, 1997. […] Ten microliter samples were removed from the corresponding wells and deposited onto blood agar plates. Plates were incubated at 35° C. for 48 hours. The highest compound dilution at which no colonies are apparent on the plate was considered the MFC. Maximum non-lethal dose (NLD) data were also obtained for each product by initially intravenously administering a single 16 mg/kg dose to each of 4 mice in several groups. After review of findings, higher or lower doses were administered and a maximum non-lethal dose was determined. Ed50 data were also obtained for each compound. Efficacy was evaluated in mice injected with C. albicans. Therapeutic efficacy was defined as a 2 log reduction in kidney cfu relative to mean vehicle control.

Series [2] has as its system mice. The series can be described thus: Maximum non-lethal dose, single intravenous dose in mice. The class given is in vivo. The procedure: as §1
In series [3] the test system is Candida albicans. Description: Minimum Inhibitory Concentration, broth dilution (NCCLS M27-A). The format is cell-based. The procedure: Of course, compounds having MICs on the low end of these ranges, or even lower, are preferred. […] Toxicity is less of a concern for typical administration, as is water solubility.
as §1
A general note: In broth dilution the organism is exposed to a series of concentrations in liquid medium.

Series [4] in a line: Water solubility.
Series [5] concerns Candida albicans. Description: Minimum Fungicidal Concentration, plating from MIC wells on blood agar. The class given is cell-based. As to conditions: blood agar plates, 35° C., 48 hours. How it is done:
as §1

The test system of series [6] is mice. As to conditions: cited from earlier work.
Series [7] relates to dogs. To be noted: compared with amphotericin B; cited from earlier work.
In series [8] the test system is rats. As to conditions: compared with amphotericin B; cited from earlier work.
Series [9] relates to patients with systemic fungal infections. As to conditions: human, in vivo; cited from earlier work.

What is called ED50 is the dose that gives a 50% effect, or the effect in half of the subjects. `COC(=O)C1C2C[C@@H](OC3O[C@H](C)[C@@H](O)[C@H](NC[C@@]4(O)OC[C@@H](O)[C@@H](OC5O[C@H](CO)[C@H](O)[C@H](O)[C@H]5O)[C@@H]4O)[C@@H]3O)/C=C/C=C/C=C/C=C/C=C/C=C/C=C/[C@H](C)[C@@H](O)[C@@H](C)[C@H](C)OC(=O)C[C@H](O)C[C@H](O)CC[C@@H](O)[C@H](O)C[C@H](O)C[C@](O)(C[C@@H]1O)O2` (stereo partly shown) [Compound C2]: in series [1], the ED50 is < 3 mg/kg and the “level of Candida albicans in the kidneys of mice (FIG. 1)” value is given as “significantly lower”. Besides, in [2], the “NLD (maximum non-lethal dose)” value is reported as >64 mg/kg. Further, in [3], the “Micro. Data (DLM/CJ) MIC” value was 2. In addition, the “Water Sol.” value in series [4] is >16 mg/mL. Further, in series [5], the “Micro. Data (DLM/CJ) MFC” value is given as 2.

Turning to `C[C@@H]1[C@H](O)[C@@H](C)/C=C/C=C/C=C/C=C/C=C/C=C/C=C/[C@H](O[C@@H]2O[C@H](C)[C@@H](O)[C@H](N)[C@@H]2O)C[C@@H]2O[C@](O)(C[C@@H](O)C[C@@H](O)[C@H](O)CC[C@@H](O)C[C@@H](O)CC(=O)O[C@H]1C)C[C@H](O)[C@H]2C(=O)O` [AmB, amphotericin B, reference compound], the ED50 in [1] came to 3.58 mg/kg. In [3], the “Micro. Data (DLM/CJ) MIC” value worked out at 0.5. Besides, the “Water Sol.” value in series [4] is listed as “negligible”. Besides, the “Micro. Data (DLM/CJ) MFC” value in [5] is given as 2. Further, in series [6], the “NLD (maximum non-lethal dose), literature value” is 2-4* mg/kg.

As to `COC(=O)[C@H]1[C@@H]2C[C@@H](O[C@@H]3O[C@H](C)[C@@H](O)[C@H](N)[C@@H]3O)/C=C/C=C/C=C/C=C/C=C/C=C/C=C/[C@H](C)[C@@H](O)[C@@H](C)[C@H](C)OC(=O)C[C@H](O)C[C@H](O)CC[C@@H](O)[C@H](O)C[C@H](O)C[C@](O)(C[C@@H]1O)O2` [AME, amphotericin B methyl ester], the “acute, nephro and hepto toxicity” value is “lower acute, nephro and hepto toxicity than amphotericin B” in series [7]; “lower acute, nephro and hepto toxicity than amphotericin B” in series [8]. Besides, the “Micro. Data (DLM/CJ) MIC” value in [3] came out at 1. The “neurological toxicity in clinical trial” value in series [9] is recorded as “many patients developed progressive neurological dysfunction associated with white matter degeneration”. Besides, the “Micro. Data (DLM/CJ) MFC” value in series [5] is reported as 2.

In the case of `COC(=O)C1C2C[C@@H](OC3O[C@H](C)[C@@H](O)[C@H](NC[C@@]4(O)OC[C@@H](O)[C@H](O)[C@@H]4O)[C@@H]3O)/C=C/C=C/C=C/C=C/C=C/C=C/C=C/[C@H](C)[C@@H](O)[C@@H](C)[C@H](C)OC(=O)C[C@H](O)C[C@H](O)CC[C@@H](O)[C@H](O)C[C@H](O)C[C@](O)(C[C@@H]1O)O2` (stereo partly shown) [Compound C1, N-tagatopyranose-amphotericin B methyl ester], in series [1], the ED50 was < 3 mg/kg and the “level of Candida albicans in the kidneys of mice (FIG. 1)” value is given as “significantly lower”. Besides, the “NLD (maximum non-lethal dose)” value in [2] is recorded as >64 mg/kg. Moreover, the “Micro. Data (DLM/CJ) MIC” value in series [3] is recorded as 2. In series [4], the “Water Sol.” value was >16 mg/mL. Moreover, the “Micro. Data (DLM/CJ) MFC” value in series [5] was 2.
